Reference: PubChem BioAssay (NCI)
Several values for one entry are separate records, joined by “and”; a condition that tells them apart may be missing. Equal entries are not always repeated.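 Tested at 5 concentrations; 48 h exposure; 96-well plates; endpoints linearly interpolated, else capped at highest concentration. GI50 = concentration required for 50% inhibition of growth. TGI denotes the concentration required for complete inhibition of growth.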

How the values were obtained:
Assay in all cases: NCI tumour cell line growth inhibition, 48 h
KM12 colon = tested on: KM12 colon
HL-60(TB) leukemia = tested on: HL-60(TB) leukemia
DMS 114 small cell lung = tested on: DMS 114 small cell lung
MCF7 breast = tested on: MCF7 breast
SK-OV-3 ovarian = tested on: SK-OV-3 ovarian
SK-MEL-2 melanoma = tested on: SK-MEL-2 melanoma
DMS 273 small cell lung = tested on: DMS 273 small cell lung
T-47D breast = tested on: T-47D breast
SF-539 CNS = tested on: SF-539 CNS
TK-10 renal = tested on: TK-10 renal
786-0 renal = tested on: 786-0 renal
CAKI-1 renal = tested on: CAKI-1 renal
NCI-H460 lung = tested on: NCI-H460 lung
M14 melanoma = tested on: M14 melanoma
MALME-3M melanoma = tested on: MALME-3M melanoma
COLO 205 colon = tested on: COLO 205 colon
UACC-62 melanoma = tested on: UACC-62 melanoma
P388/ADR leukemia = tested on: P388/ADR leukemia
HOP-92 NSCLC = tested on: HOP-92 NSCLC
EKVX NSCLC = tested on: EKVX NSCLC
OVCAR-3 ovarian = tested on: OVCAR-3 ovarian
MOLT-4 leukemia = tested on: MOLT-4 leukemia
SF-295 CNS = tested on: SF-295 CNS
U251 CNS = tested on: U251 CNS
IGROV1 ovarian = tested on: IGROV1 ovarian
P388 leukemia = tested on: P388 leukemia
RPMI-8226 leukemia = tested on: RPMI-8226 leukemia
KM20L2 colon = tested on: KM20L2 colon
LOX IMVI melanoma = tested on: LOX IMVI melanoma
SN12K1 renal = tested on: SN12K1 renal
A498 renal = tested on: A498 renal
OVCAR-8 ovarian = tested on: OVCAR-8 ovarian
OVCAR-5 ovarian = tested on: OVCAR-5 ovarian
OVCAR-4 ovarian = tested on: OVCAR-4 ovarian
SR leukemia = tested on: SR leukemia
XF 498 CNS = tested on: XF 498 CNS
LXFL 529 NSCLC = tested on: LXFL 529 NSCLC
HCT-15 colon = tested on: HCT-15 colon
SNB-78 CNS = tested on: SNB-78 CNS
DLD-1 colon = tested on: DLD-1 colon
CCRF-CEM leukemia = tested on: CCRF-CEM leukemia
M19-MEL melanoma = tested on: M19-MEL melanoma
SK-MEL-28 melanoma = tested on: SK-MEL-28 melanoma
NCI-H23 lung = tested on: NCI-H23 lung
HOP-18 NSCLC = tested on: HOP-18 NSCLC
HCC-2998 colon = tested on: HCC-2998 colon
RXF 393 renal = tested on: RXF 393 renal
SN12C renal = tested on: SN12C renal
SF-268 CNS = tested on: SF-268 CNS
SW-620 colon = tested on: SW-620 colon
ACHN renal = tested on: ACHN renal
SNB-75 CNS = tested on: SNB-75 CNS
HT29 colon = tested on: HT29 colon
NCI-H522 lung = tested on: NCI-H522 lung
RXF-631 renal = tested on: RXF-631 renal
NCI/ADR-RES ovarian = tested on: NCI/ADR-RES ovarian
UO-31 renal = tested on: UO-31 renal
A549 NSCLC = tested on: A549 NSCLC
UACC-257 melanoma = tested on: UACC-257 melanoma
SK-MEL-5 melanoma = tested on: SK-MEL-5 melanoma
K-562 leukemia = tested on: K-562 leukemia
HOP-62 NSCLC = tested on: HOP-62 NSCLC

COc1cc(Cc2nccc3cc(OC)c(OC)cc23)c(C(C)=O)cc1OC
GI50 (KM12 colon): 106 µM
TGI (KM12 colon): 300 µM
GI50 (HL-60(TB) leukemia): > 750 µM
TGI (HL-60(TB) leukemia): 130 µM and > 750 µM
GI50 (DMS 114 small cell lung): 3.02 µM
TGI (DMS 114 small cell lung): 300 µM and 164 µM
TGI (MCF7 breast): 300 µM
TGI (SK-OV-3 ovarian): 254 µM
TGI (SK-MEL-2 melanoma): 300 µM
GI50 (DMS 273 small cell lung): > 750 µM
TGI (DMS 273 small cell lung): 300 µM and > 750 µM
TGI (T-47D breast): 25.1 µM
GI50 (SF-539 CNS): 85.3 µM and 19.9 µM
TGI (SF-539 CNS): > 94.9 µM and 66.1 µM
TGI (TK-10 renal): 341 µM
TGI (786-0 renal): > 750 µM
GI50 (CAKI-1 renal): > 750 µM
TGI (CAKI-1 renal): > 750 µM
GI50 (NCI-H460 lung): 52.9 µM and 85.5 µM and 340 µM
TGI (NCI-H460 lung): 300 µM and > 750 µM
TGI (M14 melanoma): > 750 µM
GI50 (MALME-3M melanoma): 72.1 µM and 22.6 µM
TGI (MALME-3M melanoma): 64.1 µM and 158 µM
GI50 (COLO 205 colon): 5.36 µM
TGI (COLO 205 colon): 40.1 µM and 300 µM
TGI (UACC-62 melanoma): 219 µM and > 750 µM
TGI (P388/ADR leukemia): 30 µM
GI50 (HOP-92 NSCLC): 99.3 µM and > 750 µM
TGI (HOP-92 NSCLC): 267 µM and > 750 µM
TGI (EKVX NSCLC): 295 µM
GI50 (OVCAR-3 ovarian): 86 µM and 27.7 µM
TGI (OVCAR-3 ovarian): 300 µM and 203 µM
GI50 (MOLT-4 leukemia): > 750 µM
TGI (MOLT-4 leukemia): > 750 µM
GI50 (SF-295 CNS): 224 µM
TGI (SF-295 CNS): > 750 µM
TGI (U251 CNS): 300 µM and > 750 µM
GI50 (IGROV1 ovarian): 51.4 µM and 92.7 µM
TGI (IGROV1 ovarian): 300 µM and 440 µM
TGI (P388 leukemia): 119 µM
TGI (RPMI-8226 leukemia): 265 µM and > 750 µM
GI50 (KM20L2 colon): > 750 µM
TGI (KM20L2 colon): 200 µM and > 750 µM
GI50 (LOX IMVI melanoma): 150 µM and 94 µM
TGI (LOX IMVI melanoma): 300 µM and > 750 µM
TGI (SN12K1 renal): 300 µM
GI50 (A498 renal): 204 µM
TGI (A498 renal): > 300 µM and 507 µM
TGI (OVCAR-8 ovarian): 3 µM
GI50 (OVCAR-5 ovarian): 204 µM
TGI (OVCAR-5 ovarian): > 750 µM
GI50 (OVCAR-4 ovarian): 13.2 µM
TGI (OVCAR-4 ovarian): 52.3 µM and 197 µM
TGI (SR leukemia): > 750 µM
TGI (XF 498 CNS): 300 µM
TGI (LXFL 529 NSCLC): > 750 µM
GI50 (HCT-15 colon): 195 µM and 249 µM
TGI (HCT-15 colon): 300 µM and > 750 µM
TGI (SNB-78 CNS): 214 µM
GI50 (DLD-1 colon): 118 µM
TGI (DLD-1 colon): 169 µM and 351 µM
GI50 (CCRF-CEM leukemia): 15.4 µM and 16.2 µM
TGI (CCRF-CEM leukemia): 98.2 µM and 63 µM
GI50 (M19-MEL melanoma): > 750 µM
TGI (M19-MEL melanoma): 223 µM and > 750 µM
GI50 (SK-MEL-28 melanoma): 20.4 µM and 142 µM
TGI (SK-MEL-28 melanoma): 42.1 µM and 331 µM
GI50 (NCI-H23 lung): 67.1 µM
TGI (NCI-H23 lung): 300 µM and > 750 µM
GI50 (HOP-18 NSCLC): 115 µM
TGI (HOP-18 NSCLC): > 300 µM and 252 µM
TGI (HCC-2998 colon): 300 µM and > 750 µM
GI50 (RXF 393 renal): > 750 µM
TGI (RXF 393 renal): 300 µM and > 750 µM
TGI (SN12C renal): 30 µM
TGI (SF-268 CNS): 419 µM
TGI (SW-620 colon): 300 µM and > 750 µM
TGI (ACHN renal): 429 µM
GI50 (SNB-75 CNS): 29.4 µM
TGI (SNB-75 CNS): 300 µM and > 750 µM
GI50 (HT29 colon): 96.8 µM and 140 µM
TGI (HT29 colon): 300 µM and 626 µM
GI50 (NCI-H522 lung): 21.5 µM
TGI (NCI-H522 lung): 300 µM
TGI (RXF-631 renal): > 750 µM
TGI (NCI/ADR-RES ovarian): > 300 µM
GI50 (UO-31 renal): > 750 µM
TGI (UO-31 renal): > 750 µM
GI50 (A549 NSCLC): > 750 µM
TGI (A549 NSCLC): > 750 µM
GI50 (UACC-257 melanoma): 55 µM and 49 µM and 35.4 µM
TGI (UACC-257 melanoma): 116 µM and 144 µM
GI50 (SK-MEL-5 melanoma): 25.6 µM and 130 µM
TGI (SK-MEL-5 melanoma): 139 µM and 486 µM
GI50 (K-562 leukemia): 37.6 µM and 194 µM
TGI (K-562 leukemia): 300 µM
GI50 (HOP-62 NSCLC): 101 µM
TGI (HOP-62 NSCLC): 135 µM and 394 µM
